# Experimental data published in patent US20210292807A1, “METHOD FOR TESTING ANTIMICROBIAL SUSCEPTIBILITY” (priority 2017, published 2021).
# Several values for one entry are separate records, joined by “and”; a condition that tells them apart may be missing. Equal values may be shown once.
# Test system: Klebsiella isolates
# Test: Broth microdilution MIC (MICBMD) of Klebsiella isolates
# Format: cell-based, Klebsiella pneumoniae, Klebsiella oxytoca
# Description: An aliquot of bacterial suspension was added to 50 mL centrifuge tubes (Corning, N.Y.) containing 9 mL of pre-warmed (37° C.) filtered MHB to produce a final density of 5×10^5-1×10^6 bacteria per mL. This suspension was incubated at 37° C. with shaking at 100 RPM for 30 minutes to obtain an actively dividing culture. An aliquot of antibiotic working solution from the previously described dilution series (appropriate to the concentration tested) was then added to each tube before a further 30-minute incubation with shaking, during which time a microbroth dilution (MBD) plate was prepared for overnight incubation at 37° C. as previously described in Clinical and Laboratory Standards Institute (2015) Performance Standards for Antimicrobial Susceptibility Testing: Informational Supplement. CLSI document M100-S25. Clinical and Laboratory Standards Institute, 950, West Valley Road, Suite 2500, Wayne, Pa., 19087, USA.
# FIG. 2 outlines the work flow as exemplified herein. In brief, an isolate was retrieved from cryopreservation, plated onto blood agar to ensure purity, and inoculated into trypticase soy broth (TSB, described above) overnight to simulate biological fluids. A 1 mL aliquot of this overnight suspension was inoculated into Mueller-Hinton broth (MHB) [comprising about 300.0 g beef extract (dehydrated infusion from), about 17.5 g casein hydrolysate, about 1.5 g starch, reconstituted in about 1 L of water, pH 7.3±0.1 as measured and kept at 25° C.] and incubated at 37° C. to ensure bacteria were actively dividing. One aliquot was subjected to traditional microbroth dilution (MBD) susceptibility testing.
# [1] = K. pneumoniae isolate 18397, biological replicates
# [2] = K. pneumoniae isolate 43292, biological replicates
# [3] = K. pneumoniae isolate 43358, biological replicates
# [4] = K. pneumoniae isolate 44271, biological replicates
# [5] = K. pneumoniae isolate ATCC 700603, biological replicates
# [6] = K. pneumoniae isolate ATCC BAA1705, biological replicates
# [7] = K. pneumoniae isolate K1, biological replicates
# [8] = K. pneumoniae isolate K14, biological replicates
# [9] = isolate 3000770, England, NDM-1
# [10] = isolate 3040820, England, pAmpC
# [11] = isolate ATCC BAA 1705, USA, KPC
# [12] = isolate K16, Australia, IMP - 4
# [13] = isolate K23, Australia, IMP - 4
# [14] = isolate KS1, Sri Lanka, OXA-181
# [15] = isolate KS17, Sri Lanka, OXA-181
smiles,measurement,setting,value
C[C@@H](O)[C@H]1C(=O)N2C(C(=O)O)=C(S[C@@H]3CN[C@H](C(=O)N(C)C)C3)[C@H](C)[C@H]12 [meropenem],MICBMD,"K. pneumoniae ATCC 700603 (carbapenem susceptible control), limited clinical screen concentrations",≤0.25
same,MICBMD,"K. pneumoniae ATCC BAA1705 (carbapenem resistant control), limited clinical screen concentrations",>16
same,BMD S/NS,[1],S (S: MIC ≤2 mg/L)
same,MICBMD,[1],≤0.25 mg/L
same,BMD S/NS,[2],S (S: MIC ≤2 mg/L)
same,MICBMD,[2],≤0.25 mg/L
same,BMD S/NS,[3],S (S: MIC ≤2 mg/L)
same,MICBMD,[3],≤0.25 mg/L
same,BMD S/NS,[4],S (S: MIC ≤2 mg/L)
same,MICBMD,[4],0.5 mg/L
same,BMD S/NS,[5],S (S: MIC ≤2 mg/L)
same,MICBMD,[5],≤0.25 mg/L
same,BMD S/NS,[6],NS (NS: MIC >2 mg/L)
same,MICBMD,[6],16 mg/L
same,BMD S/NS,[7],NS (NS: MIC >2 mg/L)
same,MICBMD,[7],32 mg/L (2×) and 64 mg/L
same,BMD S/NS,[8],NS (NS: MIC >2 mg/L)
same,MICBMD,[8],256 mg/L
same,MICBMD,"K. pneumoniae isolate KS1, biological replicates",4 mg/L and 2 mg/L (2×)
same,MICBMD,"K. pneumoniae isolate KS11, biological replicates",2 mg/L and 4 mg/L (2×)
same,MBD S/NS,"isolate 194, Sweden, VIM",NS (NS = MIC >2 mg/L)
same,MICBMD,"isolate 194, Sweden, VIM",64 mg/L
same,MBD S/NS,"isolate 374, Sweden, VIM",NS (NS = MIC >2 mg/L)
same,MICBMD,"isolate 374, Sweden, VIM",8 mg/L
same,MBD S/NS,"isolate 3354, Australia",S (S = MIC ≤2 mg/L)
same,MICBMD,"isolate 3354, Australia",≤0.25 mg/L
same,MBD S/NS,"isolate 10924, Sweden, KPC",S (S = MIC ≤2 mg/L)
same,MICBMD,"isolate 10924, Sweden, KPC",≤0.25 mg/L
same,MBD S/NS,"isolate 18397, Australia",S (S = MIC ≤2 mg/L)
same,MICBMD,"isolate 18397, Australia",≤0.25 mg/L
same,MBD S/NS,"isolate 43288, Australia",S (S = MIC ≤2 mg/L)
same,MICBMD,"isolate 43288, Australia",≤0.25 mg/L
same,MBD S/NS,"isolate 43292, Australia",S (S = MIC ≤2 mg/L)
same,MICBMD,"isolate 43292, Australia",≤0.25 mg/L
same,MBD S/NS,"isolate 43358, Australia",S (S = MIC ≤2 mg/L)
same,MICBMD,"isolate 43358, Australia",≤0.25 mg/L
same,MBD S/NS,"isolate 43854, Australia",S (S = MIC ≤2 mg/L)
same,MICBMD,"isolate 43854, Australia",≤0.25 mg/L
same,MBD S/NS,"isolate 44271, Australia",S (S = MIC ≤2 mg/L)
same,MICBMD,"isolate 44271, Australia",0.5 mg/L
same,MBD S/NS,"isolate 51575, Sweden, ESBL",S (S = MIC ≤2 mg/L)
same,MICBMD,"isolate 51575, Sweden, ESBL",≤0.25 mg/L
same,MBD S/NS,"isolate 70708, Sweden, KPC",NS (NS = MIC >2 mg/L)
same,MICBMD,"isolate 70708, Sweden, KPC",32 mg/L
same,MBD S/NS,"isolate 71076, Sweden, KPC",NS (NS = MIC >2 mg/L)
same,MICBMD,"isolate 71076, Sweden, KPC",32 mg/L
same,MBD S/NS,"isolate 200822, Sweden, KPC",NS (NS = MIC >2 mg/L)
same,MICBMD,"isolate 200822, Sweden, KPC",16 mg/L
same,MBD S/NS,"isolate 270902, England",S (S = MIC ≤2 mg/L)
same,MICBMD,"isolate 270902, England",0.5 mg/L
same,MBD S/NS,"isolate 500638, Sweden, pAmpC",NS (NS = MIC >2 mg/L)
same,MICBMD,"isolate 500638, Sweden, pAmpC",4 mg/L
same,MBD S/NS,"isolate 515870, Sweden, ESBL",S (S = MIC ≤2 mg/L)
same,MICBMD,"isolate 515870, Sweden, ESBL",≤0.25 mg/L
same,MBD S/NS,"isolate 2440606, England",S (S = MIC ≤2 mg/L)
same,MICBMD,"isolate 2440606, England",≤0.25 mg/L
same,MBD S/NS,"isolate 2880622, England",S (S = MIC ≤2 mg/L)
same,MICBMD,"isolate 2880622, England",≤0.25 mg/L
same,MBD S/NS,"isolate 2880654, England, KPC",NS (NS = MIC >2 mg/L)
same,MICBMD,"isolate 2880654, England, KPC",64 mg/L
same,MBD S/NS,"isolate 2890369, England",S (S = MIC ≤2 mg/L)
same,MICBMD,"isolate 2890369, England",≤0.25 mg/L
same,MBD S/NS,"isolate 2980639, England",S (S = MIC ≤2 mg/L)
same,MICBMD,"isolate 2980639, England",≤0.25 mg/L
same,MBD S/NS,[9],NS (NS = MIC >2 mg/L)
same,MICBMD,[9],32 mg/L
same,MBD S/NS,[10],S (S = MIC ≤2 mg/L)
same,MICBMD,[10],0.5 mg/L
same,MBD S/NS,"isolate 3080800, England, KPC",NS (NS = MIC >2 mg/L)
same,MICBMD,"isolate 3080800, England, KPC",256 mg/L
same,MBD S/NS,"isolate A1, Norway",S (S = MIC ≤2 mg/L)
same,MICBMD,"isolate A1, Norway",≤0.25 mg/L
same,MBD S/NS,"isolate A2, Norway",S (S = MIC ≤2 mg/L)
same,MICBMD,"isolate A2, Norway",≤0.25 mg/L
same,MBD S/NS,"isolate A3, Norway",S (S = MIC ≤2 mg/L)
same,MICBMD,"isolate A3, Norway",≤0.25 mg/L
same,MBD S/NS,"isolate A4, Norway",S (S = MIC ≤2 mg/L)
same,MICBMD,"isolate A4, Norway",≤0.25 mg/L
same,MBD S/NS,"isolate A7, Norway",S (S = MIC ≤2 mg/L)
same,MICBMD,"isolate A7, Norway",≤0.25 mg/L
same,MBD S/NS,"isolate A13, Norway",S (S = MIC ≤2 mg/L)
same,MICBMD,"isolate A13, Norway",≤0.25 mg/L
same,MBD S/NS,"isolate A15, Norway",S (S = MIC ≤2 mg/L)
same,MICBMD,"isolate A15, Norway",≤0.25 mg/L
same,MBD S/NS,"isolate A16, Norway",S (S = MIC ≤2 mg/L)
same,MICBMD,"isolate A16, Norway",≤0.25 mg/L
same,MBD S/NS,"isolate A20, Norway, NDM-1",NS (NS = MIC >2 mg/L)
same,MICBMD,"isolate A20, Norway, NDM-1",16 mg/L
same,MBD S/NS,"isolate ATCC 700603, USA",S (S = MIC ≤2 mg/L)
same,MICBMD,"isolate ATCC 700603, USA",≤0.25 mg/L
same,MBD S/NS,[11],NS (NS = MIC >2 mg/L)
same,MICBMD,[11],16 mg/L
same,MBD S/NS,"isolate ATCC BAA 1706, USA",S (S = MIC ≤2 mg/L)
same,MICBMD,"isolate ATCC BAA 1706, USA",≤0.25 mg/L
same,MBD S/NS,"isolate K1, Australia, OXA-181",NS (NS = MIC >2 mg/L)
same,MICBMD,"isolate K1, Australia, OXA-181",64 mg/L
same,MBD S/NS,"isolate K2, Australia, OXA-181",NS (NS = MIC >2 mg/L)
same,MICBMD,"isolate K2, Australia, OXA-181",32 mg/L
same,MBD S/NS,"isolate K8, Australia, NDM-1",NS (NS = MIC >2 mg/L)
same,MICBMD,"isolate K8, Australia, NDM-1",>256 mg/L
same,MBD S/NS,"isolate K14, Australia, KPC",NS (NS = MIC >2 mg/L)
same,MICBMD,"isolate K14, Australia, KPC",>256 mg/L
same,MBD S/NS,[12],NS (NS = MIC >2 mg/L)
same,MICBMD,[12],16 mg/L
same,MBD S/NS,[13],S (S = MIC ≤2 mg/L)
same,MICBMD,[13],2 mg/L
same,MBD S/NS,[14],NS (NS = MIC >2 mg/L)
same,MICBMD,[14],4 mg/L
same,MBD S/NS,"isolate KS2, Sri Lanka, OXA-181",NS (NS = MIC >2 mg/L)
same,MBD S/NS,[15],NS (NS = MIC >2 mg/L)
same,MICBMD,[15],64 mg/L
same,MBD S/NS,"isolate KS23, Sri Lanka, OXA-181",NS (NS = MIC >2 mg/L)
same,MBD S/NS,"isolate N17, Sweden, NDM-1",NS (NS = MIC >2 mg/L)
same,MICBMD,"isolate N17, Sweden, NDM-1",32 mg/L
